For the assay, the target named is T1, CUL2^ZYG11B (residues 490–728) (Homo sapiens, UniProt Q9C0D3).
T1 construct: PCR was used to amplify CUL2^ZYG11B (residues 490–728); 6×His-SUMO (TEV-cleavable) (N, cleaved yes); made in house; host or cells: E. coli
Kind of assay: ITC binding of ORF10 NTE synthetic peptides to CUL2^ZYG11B.

[1] abbreviates: figure panels, […], repeated 3 times, read-out: Kd.

Like-named read-outs stand apart in the source and are kept apart here. No end group written: not given here.

As a reminder, the Kd is the equilibrium constant for the complex coming apart.

T1 sequence (Q9C0D3 490-728): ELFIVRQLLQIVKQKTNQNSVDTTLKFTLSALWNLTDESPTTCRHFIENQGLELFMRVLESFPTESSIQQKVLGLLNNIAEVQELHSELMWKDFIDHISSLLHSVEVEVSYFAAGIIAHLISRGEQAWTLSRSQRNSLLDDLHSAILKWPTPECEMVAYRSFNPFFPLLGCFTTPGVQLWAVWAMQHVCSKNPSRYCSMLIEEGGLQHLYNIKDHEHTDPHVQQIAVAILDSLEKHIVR

Turning to GYANV [SARS-2 ORF10 N5-I3A], under setting [1], the Kd was 5.61 µM. Regarding AYINV [SARS-2 ORF10 N5-G1A], the Kd was found to be 12.4 µM. As for GYIAV [SARS-2 ORF10 N5-N4A], the dissociation constant Kd under setting [1] amounted to 0.59 µM.

As for “PYINV [SARS-2 ORF10 N5-G1P, altered peptide derived from SARS-CoV-2 ORF10 N5, G1P]”, the “binding to CUL2^ZYG11B (in words)” value (ITC) is “abolished”. Consider GFINV [SARS-2 ORF10 N5-Y2F], for which, under setting [1], the Kd stood at 4.73 µM. Turning to GYFNV [SARS-2 ORF10 N5-I3F], under setting [1], the Kd was determined as 0.87 µM.

Values taken from publication PMC11413682 (Acta Pharmaceutica Sinica. B, 2024).
